In patent US20040161839A1, “Method to alter sugar moieties” (priority 2003, published 2004):

T1: DesI (Streptomyces venezuelae, UniProt Q9ZGH0)
T1 sequence (Q9ZGH0 1-415): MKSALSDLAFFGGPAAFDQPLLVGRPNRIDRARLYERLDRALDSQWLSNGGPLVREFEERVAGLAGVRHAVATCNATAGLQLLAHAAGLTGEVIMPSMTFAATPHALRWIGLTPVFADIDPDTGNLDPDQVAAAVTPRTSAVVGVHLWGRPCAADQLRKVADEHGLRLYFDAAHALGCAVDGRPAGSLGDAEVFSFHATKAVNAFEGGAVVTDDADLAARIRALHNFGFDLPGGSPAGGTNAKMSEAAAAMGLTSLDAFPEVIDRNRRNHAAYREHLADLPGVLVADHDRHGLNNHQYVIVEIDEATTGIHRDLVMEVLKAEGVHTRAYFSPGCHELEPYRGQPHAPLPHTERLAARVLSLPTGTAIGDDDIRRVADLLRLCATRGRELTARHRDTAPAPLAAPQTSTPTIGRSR


Key:
Streptococcus pyogenes = assay: Antibiotic activity, filter paper disc test on agar plates; type: cell-based; conditions: for antibiotic activity against Streptococcus pyogenes (inhibition zone around disc): 20 μL of each sample (1.6 mM in MeOH) on filter paper discs, Mueller-Hinton agar plates, overnight at 37° C.; for activity against Streptococcus pyogenes grown on Mueller-Hinton agar plates: purified compounds
Procedure: The antibiotic activity of a compound of formula (13) and (14) against Streptococcus pyogenes was examined by separately applying 20 μL of each sample (1.6 mM in MeOH) to sterilized filter paper discs which were placed onto the surface of S. pyogenes grown on Mueller-Hinton agar plates (Mangahas, 1996).

[1] = target: cytochrome P450 hydroxylase (PikC) (Streptomyces venezuelae, UniProt O87605); assay: Incubation with purified PikC in vitro (aglycone hydroxylation); type: biochemical
Source text: Another noteworthy, albeit unexpected result was the fact that the aglycone of the isolated macrolide 31 was 10-deoxymethynolide instead of methymycin and neomethymycin analogues that are hydroxylated. […] It is possible that the cytochrome P450 hydroxylase (PikC), which catalyzes the hydroxylation of 10-deoxymethynolide and narbonolide (Xue et al., 1998) is sensitive to structural variations on the appended sugar. […] A similar observation was also noted in the case where desosamine was replaced by quinovose (Example 4). It could be argued that the presence of a substituent (either hydroxyl or amino group) at C-4 in the sugar moiety is responsible, at least in part, for decreasing or preventing hydroxylation of the macrolide.

DNA = conditions: tight DNA binding, literature; cited from earlier work
DesI = target: T1, DesI; assay: Incubation with purified DesI in the presence of L-glutamate, HPLC analysis; 4-aminotransferase kinetics; type: biochemical
Source text: To verify the catalytic function of DesI, the desI gene was amplified by PCR and cloned into the pET-28b(+) expression vector (Novagen) with a His6-tag at the N-terminus. The produced DesI protein was purified to near homogeneity by a Ni-NTA column (Qiagen) followed by FPLC on a MonoQ column.

[2] = substrate: Cc1cn([C@H]2C[C@H](O)[C@@H](COP(=O)(O)OP(=O)(O)O[C@H]3O[C@H](C)C(=O)[C@H](O)[C@H]3O)O2)c(=O)[nH]c1=O; assay: as above; type: biochemical, Streptomyces venezuelae; conditions: other: DesI as PLP-dependent 4-aminotransferase, sugar substrate 6

cytochrome P450 hydroxylase (PikC), sequence (O87605 whole entry): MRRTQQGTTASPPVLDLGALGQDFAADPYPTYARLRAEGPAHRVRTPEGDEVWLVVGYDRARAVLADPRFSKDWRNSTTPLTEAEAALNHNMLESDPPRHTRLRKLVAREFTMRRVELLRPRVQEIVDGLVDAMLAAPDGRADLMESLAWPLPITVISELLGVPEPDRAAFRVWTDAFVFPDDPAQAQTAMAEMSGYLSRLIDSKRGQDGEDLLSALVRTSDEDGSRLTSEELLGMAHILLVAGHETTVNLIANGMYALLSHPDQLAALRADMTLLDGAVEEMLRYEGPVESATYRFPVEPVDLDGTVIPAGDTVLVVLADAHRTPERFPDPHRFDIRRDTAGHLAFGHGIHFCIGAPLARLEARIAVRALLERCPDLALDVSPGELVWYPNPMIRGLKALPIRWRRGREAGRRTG

Molecule	antibiotic activity against Streptococcus pyogenes (inhibition zone around disc) (Streptococcus pyogenes)	activity against Streptococcus pyogenes grown on Mueller-Hinton agar plates (Streptococcus pyogenes)	also measured
CC[C@H]1OC(=O)[C@H](C)[C@@H](O[C@@H]2O[C@H](C)C[C@H](N(C)C)[C@H]2O)[C@@H](C)C[C@@H](C)C(=O)/C=C/[C@]1(C)O [formula (1), methymycin]	clearly visible inhibition zones	clearly visible inhibition zones	
CC[C@H]1OC(=O)[C@H](C)C(=O)[C@H](C)[C@@H](O[C@@H]2O[C@H](C)C[C@H](N(C)C)[C@H]2O)[C@@H](C)C[C@@H](C)C(=O)/C=C/[C@]1(C)O [pikromycin]		clearly visible inhibition zones	
C[C@@H]1C[C@H](N(C)C)[C@@H](O)[C@H](O[C@H]2[C@@H](C)C[C@@H](C)C(=O)/C=C/[C@@H](C)[C@@H]([C@@H](C)O)OC(=O)[C@@H]2C)O1 [formula (2), neomethymycin]	clearly visible inhibition zones	clearly visible inhibition zones	
CCC1OC(=O)C(C)C(OC2OC(C)C(NC(C)=O)C(O)C2O)C(C)CC(C)C(=O)C=CC1C (centres unmarked) [compound 31]		inactive	aglycone hydroxylation on incubation with purified PikC [1]: no aglycone hydroxylation was discernible
CCC1OC(=O)C(C)C(OC2OC(C)CC(N(C)C)C2O[C@@H]2O[C@H](CO)[C@@H](O)[C@H](O)[C@H]2O)C(C)CC(C)C(=O)C=CC1(C)O (stereo partly drawn) [formula (13), C-2′β-glucosylated methymycin]	no such clearings were discernible		
CC1CC(N(C)C)C(O[C@@H]2O[C@H](CO)[C@@H](O)[C@H](O)[C@H]2O)C(OC2C(C)CC(C)C(=O)C=CC(C)C(C(C)O)OC(=O)C2C)O1 (stereo partly drawn) [formula (14), C-2′β-glucosylated neomethymycin]	no such clearings were discernible		
calicheamicin [calicheamicin (26)]			Ka (DNA binding) (DNA): 10^6-10^8
CCC1OC(=O)C(C)C(=O)C(C)C(OC2OC(C)C(NC(C)=O)C(O)C2O)C(C)CC(C)C(=O)C=CC1C (centres unmarked) [compound 32]		inactive	aglycone hydroxylation on incubation with purified PikC [1]: no aglycone hydroxylation was discernible
Cc1cn(C2CC(O)C(COP(=O)(O)OP(=O)(O)OC3OC(C)C(O)C(=O)C3O)O2)c(=O)[nH]c1=O [TDP-3-keto-deoxy-D-glucose (7), TDP-3-keto-deoxy-D-glucose]			consumption of substrate / formation of new product by DesI (DesI): no consumption
DesI (Streptomyces venezuelae) (protein) MKSALSDLAFFGGPAAFDQPLLVGRPNRIDRARLYERLDRALDSQWLSNGGPLVREFEERVAGLAGVRHAVATCNATAGLQLLAHAAGLTGEVIMPSMTFAATPHALRWIGLTPVFADIDPDTGNLDPDQVAAAVTPRTSAVVGVHLWGRPCAADQLRKVADEHGLRLYFDAAHALGCAVDGRPAGSLGDAEVFSFHATKAVNAFEGGAVVTDDADLAARIRALHNFGFDLPGGSPAGGTNAKMSEAAAAMGLTSLDAFPEVIDRNRRNHAAYREHLADLPGVLVADHDRHGLNNHQYVIVEIDEATTGIHRDLVMEVLKAEGVHTRAYFSPGCHELEPYRGQPHAPLPHTERLAARVLSLPTGTAIGDDDIRRVADLLRLCATRGRELTARHRDTAPAPLAAPQTSTPTIGRSR			Km [2]: 130 ± 4 µM
